Source: patent US20110104177A1, “HISTONE DEACETYLASE INHIBITORS, COMBINATION THERAPIES AND METHODS OF USE” (THE JOHNS HOPKINS UNIVERSITY, priority 2006, published 2011)

Experiments:
[1] = system: SFRP1, SFRP2, MLH1, CRBP1, E-cadherin genes in RKO cells; assay: RT-PCR re-expression of silenced tumor suppressor genes in RKO cells; type: cell-based, human; conditions: RKO cells; for SFRP1 RT-PCR specific band: doses of 20 and 50 μM, 24 or 48 hours
Method: To inhibit any residual SIRT1 protein, remaining RNAi-expressing cells were treated with 700 μM SPT and control samples were treated with DMSO for 24 hours. […] RKO cells were also treated with 0.5 μM Aza (24 hours), and samples were analyzed as described in FIG. 1A; RT-PCR was performed with intron-spanning primers specific for the two genes. GAPDH was also analyzed as a control. […] Control samples in which no reverse transcriptase was added were analyzed separately, and all were negative for amplification of the indicated genes. […] The level of TSG re-expression induced by Aza treatment or SIRT1 inhibition as described in FIG. 4(A) was compared to levels of expression in HCT116 cells in which the TSGs are basally expressed.
(§1) Cell culture and retroviral infection. MDA-MB-231, MCF7, HCT116, SW480 RKO, and Phoenix cells (ATCC, Rockville, Md., United States) were cultured in Dulbecco's modified Eagle's medium supplemented with 10% fetal bovine serum and 1% penicillin/streptomycin (Invitrogen, Carlsbad, Calif., United States). Retroviral infection was performed using either single or multiple rounds of infection. Briefly, Phoenix cells were transfected with either pBabe, pBabe-SIRT1H363Y, pSUPERretro, pSUPERretro-SIRT1-RNAi-1-3 (NM_012238 positions 410, 589, and 1091; Oligo Engine, Seattle, Wash., United States) using Lipofectamine 2000 (Invitrogen). After 48 h of transfection, the medium containing retrovirus was collected, filtered, and supplemented with Polybrene prior to infection of target cells (MDA-MB-231, MCF7, or HCT116). Infected cells were either harvested 24-48 hours later or subjected to selection with 2-3 μg/ml puromycin for a week prior to harvest and analysis.
(§2) RNA and protein preparation and analysis. Total RNA was extracted (Invitrogen) according to the manufacturer's instructions and subjected to reverse transcription followed by both quantitative real-time and semi-quantitative polymerase chain reaction. For quantitative real-time analyses, the QuantiTect SYBR Green PCR kit (Qiagen, Valencia, Calif., United States) was used and the amplification conditions consisted of an initial 10-minutes denaturation step at 95° C., followed by 40 cycles of denaturation at 95° C. for 15 s and annealing and extension for 30 seconds and 60 seconds, respectively. A BioRad iCycler was used (BioRad, Hercules, Calif., United States), and for quantitation the comparative cycle threshold (Ct) method was used, normalizing the Ct values for the indicated gene to the Ct values of GAPDH relative to a control sample. For conventional PCR, at least two independent sets of intron-spanning primers were used for the analysis of multiple genes, such as CRBP1, (NM_002899), E-cadherin, (L34545), SFRP1, (BC036503), SFRP2, (BC008666), and Gata-4 (L34357). For Western blots, cells stably expressing RNAi constructs were harvested in 50 mM Tris-HCl, 1% NP-40, 0.25% sodium deoxycholate, 150 mM NaCl, 50 mM sodium fluoride, 1 mM dithiothreitol, 1 mM AEBSF, 1× Complete protease inhibitor cocktail (Roche, Basel, Switzerland). Protein concentrations were measured by BCA (Pierce Biotechnology, Rockford, Ill., United States). […] On the same blot, β-actin (Sigma, St. Louis, Mo., United States) was probed to ensure equal loading.
(§3) The results from experiments performed in RKO cells are shown in FIG. 7 which presents RT-PCR results for SFRP1. […] The expression seemed stronger than for 300 μM splitomycin (Spt) or 20 mM nicotinamide (Nia) when these latter two drugs were used alone or in combination, but not as strong as the expression induced by 1 μM of the DNA demethylating agent, deoxy-aza-cytidine (Aza). […] Experiments were carried out as essentially described above.

SIRT1 [2] = biological target: T1, SIRT1 (Homo sapiens, UniProt Q96EB6); assay: Activity against the SIRT1 enzyme / SIRT1 deacetylase activity; type: biochemical
T1 sequence (Q96EB6 1-747): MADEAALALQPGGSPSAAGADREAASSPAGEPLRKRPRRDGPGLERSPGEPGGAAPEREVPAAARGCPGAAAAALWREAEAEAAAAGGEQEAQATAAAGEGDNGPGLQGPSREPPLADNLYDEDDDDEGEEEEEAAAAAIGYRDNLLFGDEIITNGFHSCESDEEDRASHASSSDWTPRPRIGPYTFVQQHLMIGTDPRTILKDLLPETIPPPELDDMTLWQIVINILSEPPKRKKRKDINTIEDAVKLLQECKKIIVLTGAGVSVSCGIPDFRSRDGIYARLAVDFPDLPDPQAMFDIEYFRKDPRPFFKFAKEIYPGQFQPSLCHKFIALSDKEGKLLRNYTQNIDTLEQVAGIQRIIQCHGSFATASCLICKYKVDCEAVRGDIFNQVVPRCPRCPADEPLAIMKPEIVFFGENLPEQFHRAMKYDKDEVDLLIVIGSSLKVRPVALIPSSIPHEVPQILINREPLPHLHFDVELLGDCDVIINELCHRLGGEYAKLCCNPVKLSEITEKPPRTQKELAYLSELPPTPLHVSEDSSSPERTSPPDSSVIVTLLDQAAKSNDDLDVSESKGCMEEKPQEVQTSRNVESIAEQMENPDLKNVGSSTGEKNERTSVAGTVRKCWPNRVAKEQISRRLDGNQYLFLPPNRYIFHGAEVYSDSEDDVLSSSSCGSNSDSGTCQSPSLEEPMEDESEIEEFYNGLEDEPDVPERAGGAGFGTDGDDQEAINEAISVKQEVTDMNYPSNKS

[3] = system: SFRP1, SFRP2, E-cadherin, CRBP1 genes in MDA-MB-231 cells; assay: RT-PCR re-expression of silenced tumor suppressor genes in MDA-MB-231 cells; type: cell-based, human; conditions: MDA-MB-231 cells
Method: The panels of FIG. 2 are as follows. […] MDA-MB-231 cells were treated with 15 mM NIA or 300 μM SPT for 21 hours, RNA was isolated, and RT-PCR was performed with intron-spanning primers specific for the indicated genes. Control samples in which no reverse transcriptase was added were analyzed separately, and all were negative for amplification of the indicated genes. […] MDA-MB-231 cells were treated with either 50 nM Aza (+), 100 μM SPT (+) or with both Aza and SPT (++), and 34 hours later, RT-PCR was performed for the indicated genes as described in FIG. 2(A). […] MDA-MB-231 cells were treated with either 0, 50, 100, or 120 μM SPT alone for 34 hours, or the treatment was followed by treatment with 300 nM TSA for 3 hours prior to RNA isolation and RT-PCR analysis. […] MDA-MB-231 cells were infected with low titers of virus for shRNA specific for SIRT1. Aza (100 nM) was added 24 hours prior to RNA isolation, and RT-PCR analysis was performed for the genes SFRP 1, SFRP2, and GAPDH as described in FIG. 2(A). […] As shown in the left panel, MDA-MB-231 cells were infected with a control (vec) or mutant SIRT1 virus (HY), and RT-PCR was performed as described in FIG. 2(A). MDA-MB-231 cells were infected with low titers of pBabe or pBabe-SIRT1H363Y retrovirus and subsequently treated with 100 nM Aza for 24 hours or with 300 nM TSA for 3 hours prior to harvest, and RT-PCR was performed.
as §1, §2

[4] = system: SFRP1, SFRP2, GATA4 promoter methylation in MDA-MB-231 cells; assay: Promoter DNA methylation by bisulfite sequencing and MSP; type: cell-based, human; conditions: MDA-MB-231 cells stably infected
Text: The panels of FIG. 3 are as follows. […] Parallel samples analyzed in FIG. 1D were subjected to bisulfite sequencing of the SFRP1 promoter from MDA-MB-231 cells stably infected with control vector or RNAi-2 or RNAi-3 retrovirus. Open circles indicate unmethylated cytosines, and closed circles indicate methylated cytosines. Numbers at the bottom show the position of cytosines relative to the transcription start site, which is at position 0, and those with a minus sign (−) are upstream from this start site. The region sequenced encompasses the CpG island in which methylation status correlates with gene expression status. […] From left to right: (−) PCR Ctrl indicates H2O only; (−) BS ctrl indicates bisulfite-treated H20; (+) M ctrl indicates the cell line in which SFRP1 is partially methylated and SFRP2 and GATA4 are fully methylated; and (+) U ctrl indicates the Tera-2 cell line in which each gene is unmethylated. All remaining lanes are for MDA-MB-231. From left to right: Aza indicates 1 μM Aza (24 hours) treatment; Ctrl indicates empty vector infection; RNAi-2 indicates shRNA-2 infection alone; RNAi-3 indicates shRNA-3 infection alone; Aza indicates 1 μM Aza (24 hours treatment of control cells; Ctrl indicates empty vector infection+vehicle; RNAi-2 indicates shRNA-2 infection+5 mM NIA treatment; and RNAi-3 indicates shRNA-3 infection+5 mM NIA treatment.
MSP and bisulfite sequencing. […]

SIRT1 [5] = assay: Western blot of SIRT1 protein after retroviral shRNA infection; type: cell-based, human; conditions: MDA-MB-231 cells
Method: as §1, §2

[6] = system: SFRP1 and 2 genes in human breast cancer cells (line H231); assay: Re-activation of SFRP1 and 2 genes in breast cancer cells (line H231); type: cell-based
Method: This has been accomplished for the SFRP1 and 2 genes in human breast cancer cells (line H231) and for SFRP1 in human colon cancer cells (line RKO).
as §3

[7] = system: SFRP1 and SFRP2 genes in MCF7 cells; assay: RT-PCR re-expression of silenced tumor suppressor genes in MCF7 cells; type: cell-based, human
Method: as §1, §2

Molecule: NC(=O)[C@@H]1CCCc2c1[nH]c1ccc(Cl)cc21 [(R)-6-chloro-2,3,4,9-tetrahydro-1H-carbazole-1-carboxamide]
- SFRP1 RT-PCR specific band [1]: produces no specific band
- inhibition of SIRT1 deactylase activity (SIRT1 [2]): inactive

Molecule: RNAi-2: shRNA targeting SIRT1 mRNA, sequence GGCCACGGATAGGTCCATA, NM_012238 position 589
- gene re-expression of SFRP1, SFRP2 and E-cadherin ([3]; shRNA retroviral infection, RT-PCR): led to gene re-expression
- SFRP1 promoter methylation profile (bisulfite sequencing) [4]: without changes in the methylation profile
- reduction of SIRT1 protein (knockdown) (SIRT1 [5]): very effective in reducing protein levels

Molecule: NC(=O)C1CCCCc2c1[nH]c1ccc(Cl)cc21 (stereo not shown) [Compound 6, 2-Chloro-5,6,7,8,9,10-hexahydro-cyclohepta[b]indole-6-carboxylic acid amide]
- transcriptional re-activation of SFRP1 and 2 genes [6]: the same effects have been achieved
- SFRP1 expression compared with 1 μM deoxy-aza-cytidine (Aza) ([1]; RT-PCR): not as strong
- SFRP1 expression compared with 300 μM splitomycin or 20 mM nicotinamide, alone or in combination ([1]; RT-PCR): stronger
- SFRP1 RT-PCR specific band [1]: produce the band at both time points
- inhibition of SIRT1 deactylase activity (SIRT1 [2]): potent inhibition

Molecule: NC(=O)c1cccnc1 [NIA, nicotinamide, reference compound]
- re-expression of epigenetically silenced, hypermethylated TSGs incl. CRBP1 ([3]; 15 mM NIA or 300 μM SPT for 21 hours): could cause the re-expression
- re-expression of epigenetically silenced, hypermethylated TSGs ([7]; sirtuin inhibitors, data not shown): could cause the re-expression

B1: SIRT1H363Y: catalytically inactive, dominant negative inhibitor of SIRT1, expressed through retroviral infection (protein, UniProt Q96EB6 2-747, looked up, variant H363Y)
NAD-dependent protein …: ADEAALALQPGGSPSAAGADREAASSPAGEPLRKRPRRDGPGLERSPGEPGGAAPEREVPAAARGCPGAAAAALWREAEAEAAAAGGEQEAQATAAAGEGDNGPGLQGPSREPPLADNLYDEDDDDEGEEEEEAAAAAIGYRDNLLFGDEIITNGFHSCESDEEDRASHASSSDWTPRPRIGPYTFVQQHLMIGTDPRTILKDLLPETIPPPELDDMTLWQIVINILSEPPKRKKRKDINTIEDAVKLLQECKKIIVLTGAGVSVSCGIPDFRSRDGIYARLAVDFPDLPDPQAMFDIEYFRKDPRPFFKFAKEIYPGQFQPSLCHKFIALSDKEGKLLRNYTQNIDTLEQVAGIQRIIQCYGSFATASCLICKYKVDCEAVRGDIFNQVVPRCPRCPADEPLAIMKPEIVFFGENLPEQFHRAMKYDKDEVDLLIVIGSSLKVRPVALIPSSIPHEVPQILINREPLPHLHFDVELLGDCDVIINELCHRLGGEYAKLCCNPVKLSEITEKPPRTQKELAYLSELPPTPLHVSEDSSSPERTSPPDSSVIVTLLDQAAKSNDDLDVSESKGCMEEKPQEVQTSRNVESIAEQMENPDLKNVGSSTGEKNERTSVAGTVRKCWPNRVAKEQISRRLDGNQYLFLPPNRYIFHGAEVYSDSEDDVLSSSSCGSNSDSGTCQSPSLEEPMEDESEIEEFYNGLEDEPDVPERAGGAGFGTDGDDQEAINEAISVKQEVTDMNYPSNKS
- re-expression of SFRP1 and SFRP2 ([3]; dominant negative expressed through retroviral infection): re-expression of SFRP1 and SFRP2
- reactivation of SFRP1 (GATA-5 and SFRP2 data not shown), combined with Aza ([3]; low titers of retrovirus, 100 nM Aza for 24 hours): synergistic reactivation of SFRP1
- reactivation of SFRP1 (GATA-5 and SFRP2 data not shown), combined with TSA ([3]; low titers of retrovirus, 300 nM TSA for 3 hours): synergistic reactivation of SFRP1
- gene re-expression of SFRP1 and SFRP2 ([7]; retroviral infection, RT-PCR): re-expression of SFRP1 and SFRP2
